# In paper PMC5057115, “Cathelicidins in the Tasmanian devil (Sarcophilus harrisii)” (Scientific Reports, 2016):
# Where a SMILES comes first, the peptide text is derived from it. Where no end group is shown, it is not given here.
# What was measured:
# S. pneumoniae ATCC 49619 = experiment: microbe, parasite or virus in culture; assay type: cell-based; details: Streptococcus pneumoniae, ATCC49619; broth microdilution (CLSI), 64 to 0.125 μg/mL, 24 h at 35 °C with 5% CO2; ATCC strain; read-out: MIC
# Protocol: (§1) Tissue expression of devil cathelicidin prepropeptides was determined by real-time PCR on a range of secretory, immune, reproductive, gastrointestinal and respiratory tissues, as well as BLAST searches of the milk transcriptome. Opportunistic tissue samples for real-time PCR were collected from Taronga Zoo (Sydney) from devils which were subject to euthanasia due to old age and advanced disease. The mature peptides of all six devil cathelicidins were synthesised by ChinaPeptides Co. Ltd. and their antimicrobial activity against bacterial and fungal pathogens determined by broth microdilution susceptibility assay according to clinical laboratory standards institute guidelines. Antimicrobial activity was expressed as minimum inhibitory concentration (MIC). Cytotoxicity was assessed in the human cell line A549 and haemolytic activity determined against human blood. Statistical significance of peptide effect on cell survival in comparison to the untreated control was calculated using a one sample t-test. Pouch microbiome analysis was performed on swabs from the pouch of lactating and non-lactating devils to detect changes in microbe populations. Pouch swab collection was carried out in accordance with the Save the Tasmanian Devil Program and was approved by the Animal Ethics Committee of the University of Sydney (permit number 681). […]
# (§2) base (YNB) for fungi, from a concentration of 64μg/mL to 0.125μg/mL in a final volume of 100 μL .
# (§3) Two antibiotics, ampicillin and tetracycline, were included as a positive control for bacteria, and the antifungal drug fluconazole for fungi. A well containing cells and media only was used as a “no drug” control to ensure that cultures grew normally. Bacteria were subcultured on Mueller Hinton agar (MHA) or Sheep blood agar (BA) for 24 hours at 35 °C for Staphylococcus spp., Pseudomonas spp., Enterococcus spp. and E.coli, with 5% CO2 for Streptococcus spp., K.pneumoniae, P.multocida, L.monocytogenes and N.asteroides. Similarly, fungi were subcultured on Sabouraud agar (SAB) at 35 °C for 24 hours prior to the test. Colonies were resuspended in saline and the OD530 measured with a McFarland reader. If necessary the suspension was diluted to 0.45-0.55 McFarland units with saline. Following a 1:150 dilution for bacteria and twostep dilution for fungi (1:50, 1:20), 100 μL of microorganisms (1x106 – 5 x10^5 cells/mL) were pipetted into wells 2-12, the first well acting as a negative control. Colony counts were performed using a 1:1000 dilution for bacteria and 1:10 for fungi spread onto MHA/BA or SAB plates respectively. The 96 well microdilution and agar plates were incubated for 24 hours at 35 °C (Escherichia coli, Staphylococcus spp., Enterococcus spp. and Pseudomonas spp.), with 5% CO2 (Streptococcus spp. Pasteurella multocida, Klebsiella pneumoniae, Listeria monocytogenes a nd Nocardia asteroids) for bacteria, and 35 °C for 48 hours (Candida spp .) or 72 hours (Cryptococcus spp.) for fungi. Assays Antimicrobial activity was expressed as minimum inhibitory concentration (MIC), which was defined as the lowest concentration of cathelicidin preventing visible growth, relative to the negative control. […]
# (§4) DMEM and positive control of dimethylsulfoxide (DMSO) (1%) were also included. […]
# (§5) 570nm and 620nm using the Victor 3 multilabel plate reader (PerkinElmer). The assay was performed on two separate occasions. To x i city of cathelicidins was calculated according to Invitrogen recommendations and expressed as percentage cell survival compared to the untreated growth control. A significant difference between cathelicidin treated and control cell survival was tested using a o ne sample t-test (p<0.05).
# (§6) Haemolytic activity was assessed using 10mL of human blood collected into potassium -ED T A vacutainers (BD). The blood was washed three times with 30mL of calcium and magnesium -free Dulbecco’s phosphate buffered saline (DPBS) and cells were collected by centrifugation at 2000 x g […]
# (§7) for 10 minutes. […]
# E. faecalis ATCC 29212 = experiment: microbe, parasite or virus in culture; assay type: cell-based, Enterococcus faecalis; details: Enterococcus faecalis, ATCC29212; broth microdilution (CLSI), 64 to 0.125 μg/mL, 24 h at 35 °C; ATCC strain; read-out: MIC
# Protocol: as §1, §2
# (§8) Two antibiotics, ampicillin and tetracycline, were included as a positive control for bacteria, and the antifungal drug fluconazole for fungi. A well containing cells and media only was used as a “no drug” control to ensure that cultures grew normally. Bacteria were subcultured on Mueller Hinton agar (MHA) or Sheep blood agar (BA) for 24 hours at 35 °C for Staphylococcus spp., Pseudomonas spp., Enterococcus spp. and E.coli, with 5% CO2 for Streptococcus spp., K.pneumoniae, P.multocida, L.monocytogenes and N.asteroides. Similarly, fungi were subcultured on Sabouraud agar (SAB) at 35 °C for 24 hours prior to the test. Colonies were resuspended in saline and the OD530 measured with a McFarland reader. If necessary the suspension was diluted to 0.45-0.55 McFarland units with saline. […] Assays Antimicrobial activity was expressed as minimum inhibitory concentration (MIC), which was defined as the lowest concentration of cathelicidin preventing visible growth, relative to the negative control. […]
# (§9) 570nm and 620nm using the Victor 3 multilabel plate reader (PerkinElmer). […] To x i city of cathelicidins was calculated according to Invitrogen recommendations and expressed as percentage cell survival compared to the untreated growth control. […]
# (§10) Haemolytic activity was assessed using 10mL of human blood collected into potassium -ED T A vacutainers (BD). […]
# E. coli ATCC 25922 = experiment: microbe, parasite or virus in culture; assay type: cell-based, Escherichia coli; details: Escherichia coli, ATCC25922; broth microdilution (CLSI), 64 to 0.125 μg/mL, 24 h at 35 °C, lowest concentration preventing visible growth; ATCC strain; read-out: MIC
# Protocol: as §1, §2, §8, §9, §10
# S. aureus ATCC 29213 = experiment: microbe, parasite or virus in culture; assay type: cell-based, Staphylococcus aureus; details: Staphylococcus aureus, ATCC29213; broth microdilution (CLSI), 64 to 0.125 μg/mL, 24 h at 35 °C; ATCC strain; read-out: MIC
# Protocol: as §1, §2, §8, §9, §10
# P. aeruginosa ATCC 27853 = experiment: microbe, parasite or virus in culture; assay type: cell-based, Pseudomonas aeruginosa; details: Pseudomonas aeruginosa, ATCC27853; broth microdilution (CLSI), 64 to 0.125 μg/mL, 24 h at 35 °C; ATCC strain; read-out: MIC
# Protocol: as §1, §2, §8, §9, §10
# [1] = system: 25 bacterial and 6 fungal strains; assay type: cell-based; details: against the bacteria and fungi tested (25 bacterial and 6 fungal strains of Table 2), broth microdilution (CLSI)
# Description: To assess the antimicrobial activity of devil cathelicidins, we tested synthesized mature peptides on 25 bacterial and 6 fungal strains (Table 2). As there were no Tasmanian devil specific isolates available, human and veterinary strains were used. The antimicrobial activity of Tasmanian devil cathelicidin mature peptides Saha-CATH1 to 6 against bacteria and fungi is summarised in Table 2. […] As such, these values are not included in Table 2. Saha-CATH3 had highly specific activity, as it was unable to kill any bacteria, but killed Cryptococcus neoformans. […]
# Tissue expression of devil cathelicidin prepropeptides was determined by real-time PCR on a range of secretory, immune, reproductive, gastrointestinal and respiratory tissues, as well as BLAST searches of the milk transcriptome. […] The mature peptides of all six devil cathelicidins were synthesised by ChinaPeptides Co. Ltd. and their antimicrobial activity against bacterial and fungal pathogens determined by broth microdilution susceptibility assay according to clinical laboratory standards institute guidelines. Antimicrobial activity was expressed as minimum inhibitory concentration (MIC). Cytotoxicity was assessed in the human cell line A549 and haemolytic activity determined against human blood. Statistical significance of peptide effect on cell survival in comparison to the untreated control was calculated using a one sample t-test. […]
# human red blood cells = assay type: cell-based; details: red cells of human, 24 h
# Protocol: Tissue expression of devil cathelicidin prepropeptides was determined by real-time PCR on a range of secretory, immune, reproductive, gastrointestinal and respiratory tissues, as well as BLAST searches of the milk transcriptome. Opportunistic tissue samples for real-time PCR were collected from Taronga Zoo (Sydney) from devils which were subject to euthanasia due to old age and advanced disease. […] Ltd. and their antimicrobial activity against bacterial and fungal pathogens determined by broth microdilution susceptibility assay according to clinical laboratory standards institute guidelines. Antimicrobial activity was expressed as minimum inhibitory concentration (MIC). Cytotoxicity was assessed in the human cell line A549 and haemolytic activity determined against human blood. Statistical significance of peptide effect on cell survival in comparison to the untreated control was calculated using a one sample t-test. Pouch microbiome analysis was performed on swabs from the pouch of lactating and non-lactating devils to detect changes in microbe populations. Pouch swab collection was carried out in accordance with the Save the Tasmanian Devil Program and was approved by the Animal Ethics Committee of the University of Sydney (permit number 681). page 3: […] Two antibiotics, ampicillin and tetracycline, were included as a positive control for bacteria, and the […] A well containing cells and media only was used as a “no drug” control to ensure that cultures grew normally. Bacteria were subcultured on Mueller Hinton agar (MHA) or Sheep blood agar (BA) for 24 hours at 35 °C for Staphylococcus spp., Pseudomonas spp., Enterococcus spp. and E.coli, with 5% CO2 for Streptococcus spp., K.pneumoniae, P.multocida, […] Similarly, fungi were subcultured on Sabouraud agar (SAB) at 35 °C for 24 hours prior to the test. Colonies were resuspended in saline and the OD530 measured with a McFarland reader. If necessary the suspension was diluted to 0.45-0.55 McFarland units with saline. […] Assays Antimicrobial activity was expressed as minimum inhibitory concentration (MIC), which was defined as the lowest concentration of cathelicidin preventing visible growth, relative to the negative control. Colonies which grew on agar plates were also counted. Cytotoxicity Cytotoxicity was assessed in the human A549 cell line maintained in Dulbecco’s Modification of Eagle’s Medium (DMEM) supplemented with 10% foetal bovine serum (FBS), 2mM L -glutamine, 50units/mL penicillin and 50μg/mL streptomycin. […] Following incubation for a further 24 hours, cell viability was determined using alamar blue (Invitrogen) which was added to each well. […]
# [2] = system: C. parapsilosis ATCC 22019; experiment: microbe, parasite or virus in culture; assay type: cell-based; details: Lodderomyces parapsilosis, ATCC22019; broth microdilution (CLSI), YNB, 64 to 0.125 μg/mL, 48 hours at 35 °C; ATCC strain; read-out: MIC
# Protocol: as §1, §2, §3, §4, §5, §6, §7
molecule,measurement,setting,value
"CC1(C)S[C@@H]2[C@H](NC(=O)[C@H](N)c3ccccc3)C(=O)N2[C@H]1C(=O)O [ampicillin, reference compound]",MIC,S. pneumoniae ATCC 49619,0.125 µg/mL
same,MIC,E. faecalis ATCC 29212,1 µg/mL
same,MIC,E. coli ATCC 25922,8 µg/mL
"CN(C)[C@@H]1C(O)=C(C(N)=O)C(=O)[C@@]2(O)C(O)=C3C(=O)c4c(O)cccc4[C@@](C)(O)[C@H]3C[C@@H]12 [tetracycline, reference compound]",MIC,S. aureus ATCC 29213,0.125 µg/mL
same,MIC,P. aeruginosa ATCC 27853,8 µg/mL
KREDFLDQIIRDFRNFIYQKYRRLRDEFRKLRDILSG [Saha-CATH4],minimum inhibitory concentration (MIC),[1],greater than 64 μg/mL
same,haemolysis compared with the positive control,human red blood cells,below 7%
"OC(Cn1cncn1)(Cn1cncn1)c1ccc(F)cc1F [fluconazole, reference compound]",MIC,[2],2 µg/mL
TFKRKNGSRKNGHRPGGYSLIALGNKKVLKAPYMESI [Saha-CATH2],minimum inhibitory concentration (MIC),[1],greater than 64 μg/mL
same,haemolysis compared with the positive control,human red blood cells,below 7%
CC[C@H](C)[C@H](NC(=O)CN)C(=O)N[C@@H](CCCCN)C(=O)N[C@@H](Cc1c[nH]cn1)C(=O)N[C@H](C(=O)N[C@@H](CC(C)C)C(=O)N[C@@H](Cc1ccccc1)C(=O)N[C@@H](CCSC)C(=O)N[C@@H](C)C(=O)N[C@@H](CCCCN)C(=O)N[C@H](C(=O)N[C@@H](CCCCN)C(=O)N[C@@H](CC(C)C)C(=O)N1CCC[C@H]1C(=O)N[C@@H](CCCNC(=N)N)C(=O)N[C@@H](C)C(=O)N[C@H](C(=O)N[C@@H](CS)C(=O)N[C@H](C(=O)N[C@@H](C)C(=O)N[C@@H](CCC(=O)O)C(=O)N[C@H](C(=O)N[C@@H](CCCCN)C(=O)N[C@@H](CCC(=O)O)C(=O)N[C@@H](CC(N)=O)C(=O)N[C@@H](CS)C(=O)N[C@@H](CC(=O)O)C(=O)N[C@@H](CCCNC(=N)N)C(=O)N[C@@H](CCCCN)C(=O)N[C@@H](CCCCN)C(=O)O)[C@@H](C)CC)[C@@H](C)O)[C@@H](C)O)[C@@H](C)O)[C@@H](C)CC [Saha-CATH1] (H-GIKHILFMAKTKLPRATCTAEIKENCDRKK-OH; N-terminus and C-terminus assumed),haemolysis compared with the positive control,human red blood cells,below 7%
